According to patent publication US20250032425A1, “FIRST IN CLASS USE OF ESTROGEN RECEPTOR BETA AGONISTS IN TREATING ANGELMAN SYNDROME AND RELEVANT AUTISM SPECTRUM DISORDERS” (BROWN UNIVERSITY, priority 2023, published 2025):
“Also recorded” adds a separate entry of the source.

Legend:
Type in all cases: in vivo, mouse
[1] = test system: Angelman syndrome (AS) mice; assay: Accelerating Rotarod test in AS mice; conditions: 10 mg/kg daily IP, days 1-3, vs AS vehicle
Procedure: (§1) Animal handling and experimental use strictly followed NIH guidelines and protocols approved by the local Institutional Animal Care and Use Committee (IACUC) of Brown University. In all experiments, Mice were age and gender-matched. Multiple liters were used for all experiments. Weaned mice, housed in groups of two to four per cage, were maintained on a 12-h light/dark cycle with food and water ad libitum.
(§2) ESRβ agonist AC-186 treatment in vivo. 10 mg/kg AC-186 was daily IP delivered after dissolved at high concentration (30 mg/ml) in DMSO and further diluted in 20% PEG300. Vehicle groups received the same volume and concentration of diluted DMSO in 20% PEG300. Treatment started at P13 and continued until mice were sacrificed at P42.
This involved conducting two trials per day for three consecutive days, with a 20-minute rest interval between trials. During each trial, mice were placed on a rod that accelerated from 4 to 40 RPM over a five-minute period, and the time until each mouse fell was recorded. The average duration before falling was tracked and graphed across the three-day span.

[2] = test system: Angelman syndrome (AS) mice; assay: Fear conditioning test in AS mice
Procedure: as §1, §2
For evaluating hippocampus-dependent memory, the protocol described in Lau and Yang, et al., 2023 for the fear conditioning test was followed. Mice were placed in an electrified and sound-attenuated chamber (Coulbourn Instruments, Allentown, PA) which was exposed to a scent (0.1% coconut) diluted in ethanol (70%) on day 1. Mice were habituated to the chamber for 3 min before undergoing three conditioning trials: a tone (5 kHz, 70 dB, 30 s) co-terminating with a foot shock (0.7 mA, 1 s). Conditioning trials were separated by a 30-second interval. Following conditioning, mice rested inside the chamber for 1.5 min before returning to their home cage. […]

[3] = test system: Angelman syndrome (AS) mice; assay: Immunofluorescence histopathology of brain sections after treatment (oligodendroglia, myelination, ESRβ, UBE3A)
Procedure: For immunofluorescence with brain tissue sections, mice were sacrificed under deep anesthesia using Xylazine (10 mg/kg body weight) and Ketamine (100 mg/kg body weight) and perfused through the left cardiac ventricle with ice-cold phosphate-buffered saline (PBS) followed by 4% paraformaldehyde (PFA) in PBS. Whole brains were removed and post-fixed in 4% PFA overnight at 4° C. followed by sequential immersion in 15% and 30% sucrose for cryoprotection. The brain was then dissected and 25 μm coronal sections were prepared with a Cryostat Leica. Sections collected on the charged microscope slides (Globe Scientific #1354W) were processed for immunohistochemical staining as follows. In brief, tissue sections were blocked for 1 hour at room temperature (RT) in 5% goat/donkey serum (G/DS) with 0.3% Triton-X100 in 0.1 M phosphate buffer (0.3% PBST). After blocking, tissue sections were incubated in primary antibody diluted in blocking solution overnight at 4° C. The following day, sections were briefly washed 3 times for 5 min each at RT in PBS followed by incubation with secondary antibodies diluted in blocking solution for 2 hours at RT. Sections were then briefly washed 3 times for 5 min each at RT in PBS and mounted using EMS Shield Mount with Dabco (Electron Microscopy Sciences, #17985-200) mounting media with 4′,6-diamidino-2-phenylindole (DAPI) (Vector Laboratories, #H-1200) to stain cell nuclei.
For the purpose of imaging brain sections, we utilized both the BioTek Lionheart FX Automated Microscope and the Zeiss LSM 880 confocal laser-scanning microscope. The subsequent image analysis and quantification were conducted using NIH ImageJ software, employing the particle and intensity analysis macro for detailed examination. Channels were separated, and images from various experimental groups were thresholded uniformly to identify individual cells. In each brain, 20-30 cells were outlined for analysis. To determine the extent of colocalization, we applied the Zeiss ZEN Microscopy Software's colocalization coefficient analysis tool, which allowed for precise measurement of overlapping signals within the selected cells.
To assess the levels of UBE3A protein within oligodendroglial cells, dual immunofluorescent staining was conducted. This involved the use of a UBE3A antibody sourced from Santa Cruz Biotechnology (sc-10294) and an Olig2 antibody provided by Aves Labs (#OLIG2-0020). The corresponding secondary antibodies were tagged with Alexa 647 and Alexa 488 fluorophores. These procedures were applied to coronal brain sections harvested from postnatal days 7-10, 30, and 42 from both control and Angelman Syndrome (AS) mice. We utilized a 20× objective on a GENS microscope to capture confocal images of UBE3A and Olig2 expression. Subsequent analysis was performed using NIH ImageJ software, where fluorescence intensities, denoted in arbitrary units (a.u.), were measured to determine the relative quantities of UBE3A protein. The quantification process involved delineating areas of interest around Olig2-positive cells. Quantitative analysis of ESR2 and MBP proteins was carried out using a similar method.
as §2

[4] = corpus callosum, AS mice vs AS saline
[5] = corpus callosum, AS mice vs AS vehicle
[6] = cortex, hippocampus, and fimbria, AS mice vs AS saline

`Oc1ccc(C2(c3ccccc3F)CCC(F)(F)CC2)cc1` [AC-186] was tested, and the “Rotarod time to fall” value [1] was “significant improvements; also recorded: increased”, the “Contextual fear conditioning, percentage of time spent freezing” value ([2]; AS mice, 10 mg/kg daily IP, vs AS vehicle, 10 mg/kg) was “ameliorated; also recorded: increased” and the cued fear conditioning ([2]; all four groups) was “no intergroup differences”. The UBE3A intensity ([3]; AS mice vs AS saline) was “did not modify; also recorded: comparable”, the “oligodendrocyte populations and myelination” value ([3]; AS mouse brains) was “notably restored” and the “ESRβ intensity in Olig2-positive and O4-positive cells” value [3, 4] was “slightly increased; also recorded: increased”. For the same compound, the “O4-positive cells/mm^2” value [3, 4] was “increased”, the “Olig2-positive cells/mm^2” value [3, 4] was “increased” and the “OPC density (PDGFRa-positive cells per square millimeter)” value [3, 5] was “increased”. For the same compound, the “proliferating OPCs (Ki67 and PDGFRa dual positive, proportion of total OPCs)” value [3, 5] was “increased”, the MBP intensity [3, 6] was “increased” and the O4-positive cell density [3, 6] was “increased”. For the same compound, the Olig2-positive cell density [3, 6] was “increased” and the “oligodendrocyte populations and myelination” value ([3]; wildtype mice) was “no impact”.
